# Patent US10137169B2, “Compositions and uses thereof” (FOLLICUM AB, priority 2011, dated 2018)
# “Also recorded” adds a separate entry of the source.
# Key:
# Mice (C57BL/6) [1] = assay: Histological analysis of peeled skin: follicle count in subcutis and skin thickness (Example D); type: in vivo; design: Skin thickness: unit not given here; conditions: Mean ± sem, day 16, 60 nM
# Experimental: (§1) Animals and treatments are as described above in Example B.
# (§2) All animals were sacrificed on day 16.
# Peeled skin sections were prepared for histological analysis as described in Example A. Follicle count in the subcutis and skin thickness were then measured.
# (§3) In the present study, the animals were preselected for pink skin (telogen phase) and the test polypeptide was administered by subcutaneous/topical route. A good hair growth promoter triggers the transition from the resting telogen phase to the active anagen phase, and thus a transition from light skin to dark skin. This dark pigmentation may result from the collection of melanin in the hair follicles, in preparation for new hair growth during the anagen phase. Melanin synthesis of follicular melanocytes is strictly coupled to the anagen phase, ceases during catagen and is absent in telogen phase. […] Upon termination, the dorsal skin of the animals was then excised out by peeling and the peeled skin reversed and observed for the induction of melanogenesis indicated by visual blackening. […] A good hair growth promoter increases no. of follicles in sub cutis and skin thickness.
# Mice (C57BL/6) [2] = assay: In vivo study of hair growth effect in mice, hair growth score (Example B); design: Hair growth score / Hair growth score, Mean: scale not given here; conditions: for day from which hair growth was evident / hair growth effect / Hair growth score, Mean: 60 nM s.c. on Days 1, 5 and 9; for hair growth effect: assessment to day 16; for Hair growth score, Mean: mean of 5 animals
# Experimental: Mice (C57BL/6) were used at an age of 6 to 8 weeks.
# • Selection of animals in telogen phase of hair growth. • Clipping of dorsal back of animals • Subcutaneous injection of test peptide/vehicle • Visual analysis: Percentage anagen induction; Mean hair growth score; Visual melanogenesis: • Histological analysis: Follicle count in subcutis; Morphometry for skin thickness. Treatment Groups • Animals were assigned randomly to treatment groups (see Table 3)
# • Animals were administered the specified treatment on Days 1, 5 and 9 • Treatment were administered by subcutaneous injection into dorsal clipped skin Scoring Criteria • The effect of the treatments was observed and scored daily according to the criteria in Table 4
# Mice (C57BL/6) [3] = assay: Observation of melanogenesis / anagen induction, external and peeled skin (Example D); type: in vivo; conditions: 60 nM; for Black colour in peeled skin (day 16): animals out of 5; for % anagen induction**: with respect to black colour in peeled skin; for Black colour in peeled skin (day 16) / % anagen induction**: day 16; for % anagen induction*: with respect to external skin colour change from pink to black
# Source text: as §1, §2
# Following completion of the term of hair growth assessment for Example B, the animals were euthanized and dorsal skin peeled and removed for observation of the internal surface.
# The hair growth cycle consists of three phases: a resting telogen phase (C57BL/6 skin is a pale pink colour), an active hair growth anagen phase (where the skin becomes dark gray or black), and finally a catagen phase (where hair growth stops, and the skin transitions back to the telogen phase, returning to a pale pink colour).
# as §3
# Mice (C57BL/6) [4] = assay: In vivo study of hair growth effect in mice of the wildtype osteopontin fragment (Example C); design: Hair growth score, Mean: scale not given here; conditions: for Hair growth score, Mean: mean of 6 animals
# Experimental: Animals, as described above in Example B, were treated as described in Table 6:
# • This sequence is a fragment of wildtype mouse osteopontin, and corresponds to the region of the protein from which “FOL-004” is derived (i.e. “FOL-004” is a mutated version of wildtype fragment “FOL-001”). • Animals were administered the specified treatment on Days 1, 5 and 9 • Treatment were administered by subcutaneous injection into dorsal clipped skin Scoring Criteria • The effect of the treatments was observed and scored daily as described in Example B. Results
# male wtC57BL/6N mice = assay: In vivo study of hair follicle density in mouse skin after intracutaneous injection (Example A); conditions: data not shown
# Source text: The modified osteopontin polypeptide sequence SEQ ID NO:1 was cloned into a pCEP4 expression vector by the use of XhoI and BamHI restriction enzyme sites. The pCEP4 expression vector contains an ampicillin resistance gene for expression in bacteria and a hygromycin resistance gene for expression in eukaryotic EBNA cells. The polypeptide containing vector were transformed into competent XL-10 bacteria cells, multiplied and isolated with Qiagen midi prep kit. Isolated vectors were then transfected into human EBNA cells by the use of Fugene transfection reagent according to manufacture protocol (Invitrogen).
# Medium from EBNA cell culture containing the produced polypeptide were collected after three to four days of culture. Polypeptides produced by pCEP4 plasmid contain an inserted His-tag, which is used to facilitate the isolation with Ni-sepharose gel chromatography (Invitrogen). Collected medium was diluted with binding buffer (20 mM sodium phosphate, 500 mM sodium chloride, pH 7.8), Ni-sepharose suspension was added before incubation on shaker overnight at 4° C. […]
# Protocol for Hematoxylin-staining of paraffin-embedded sections of Group 1 1. […] Mount slide using Permount and coveslip. a) the time depends on the type of hematoxylin used, 20 sec to 10 min (which can be determined by the use of test slides) b) filtrated before use Results
substance,measurement,setting,value
VDTYDGDISVVYGLR (Preferred 15-amino acid peptide) [FOL-005],Follicle count in subcutis (no.),Mice (C57BL/6) [1]; all animals,34.80 ± 14.58 no.
same,Skin thickness,Mice (C57BL/6) [1]; all animals,348.80 ± 40.05
same,Follicle count in subcutis (no.),Mice (C57BL/6) [1]; animals in anagen only,58 ± 14.58 no.
same,Skin thickness,Mice (C57BL/6) [1]; animals in anagen only,348.80 ± 40.05
same,day from which hair growth was evident,Mice (C57BL/6) [2],5 days
same,hair growth effect,Mice (C57BL/6) [2],rapid hair growth; also recorded: particular fast onset of action
same,"Hair growth score, Mean",Mice (C57BL/6) [2]; Day 1,0.0
same,"Hair growth score, Mean",Mice (C57BL/6) [2]; Day 2,0.0
same,Hair growth score,"Mice (C57BL/6) [2]; Day 5, individual animal, 60 nM, 25 μl s.c. on Days 1, 5 and 9",2.0
same,"Hair growth score, Mean",Mice (C57BL/6) [2]; Day 5,1.3
same,"Hair growth score, Mean",Mice (C57BL/6) [2]; Day 6,1.7
same,"Hair growth score, Mean",Mice (C57BL/6) [2]; Day 7,1.9
same,"Hair growth score, Mean",Mice (C57BL/6) [2]; Day 8,2.1
same,"Hair growth score, Mean",Mice (C57BL/6) [2]; Day 9,2.3
same,"Hair growth score, Mean",Mice (C57BL/6) [2]; Day 12,2.7
same,"Hair growth score, Mean",Mice (C57BL/6) [2]; Day 13,2.8
same,"Hair growth score, Mean",Mice (C57BL/6) [2]; Day 14,2.8
same,"Hair growth score, Mean",Mice (C57BL/6) [2]; Day 15,3.0
same,"Hair growth score, Mean",Mice (C57BL/6) [2]; Day 16,3.0
same,No. of animals showing hair growth,Mice (C57BL/6) [3],5/5
same,Skin colour (external),Mice (C57BL/6) [3],Black
same,Skin colour (external): animals with this colour,Mice (C57BL/6) [3],(5/5 animals)
same,Black colour in peeled skin (day 16),Mice (C57BL/6) [3],3/5
same,% anagen induction**,Mice (C57BL/6) [3],60%
same,% anagen induction*,Mice (C57BL/6) [3],100%
VDVPNGDISLAYGLR (Preferred 15-amino acid peptide (FOL-004)),Follicle count in subcutis (no.),Mice (C57BL/6) [1]; all animals,6.20 ± 5.80 no.
same,Skin thickness,Mice (C57BL/6) [1]; all animals,312.2 ± 15.60
same,Follicle count in subcutis (no.),Mice (C57BL/6) [1]; animals in anagen only,29 ± 5.8 no.
same,Skin thickness,Mice (C57BL/6) [1]; animals in anagen only,312.2 ± 15.60
same,day from which hair growth was evident,Mice (C57BL/6) [2],5 days
same,hair growth effect,Mice (C57BL/6) [2],rapid hair growth; also recorded: particular fast onset of action
same,"Hair growth score, Mean",Mice (C57BL/6) [2]; Day 1,0.0
same,"Hair growth score, Mean",Mice (C57BL/6) [2]; Day 2,0.0
same,"Hair growth score, Mean",Mice (C57BL/6) [2]; Day 5,1.7
same,"Hair growth score, Mean",Mice (C57BL/6) [2]; Day 6,2.1
same,"Hair growth score, Mean",Mice (C57BL/6) [2]; Day 7,2.4
same,"Hair growth score, Mean",Mice (C57BL/6) [2]; Day 8,2.5
same,"Hair growth score, Mean",Mice (C57BL/6) [2]; Day 9,2.6
same,"Hair growth score, Mean",Mice (C57BL/6) [2]; Day 12,2.7
same,"Hair growth score, Mean",Mice (C57BL/6) [2]; Day 13,2.7
same,"Hair growth score, Mean",Mice (C57BL/6) [2]; Day 14,2.7
same,"Hair growth score, Mean",Mice (C57BL/6) [2]; Day 15,2.9
same,"Hair growth score, Mean",Mice (C57BL/6) [2]; Day 16,3.0
same,No. of animals showing hair growth,Mice (C57BL/6) [3],5/5
same,Skin colour (external),Mice (C57BL/6) [3],Black
same,Skin colour (external): animals with this colour,Mice (C57BL/6) [3],(5/5 animals)
same,Black colour in peeled skin (day 16),Mice (C57BL/6) [3],1/5
same,% anagen induction**,Mice (C57BL/6) [3],20%
same,% anagen induction*,Mice (C57BL/6) [3],100%
"VDVPNGRGDSLAYGLR (FOL-001) [fragment of wildtype mouse osteopontin, region from which FOL-004 is derived]",day at which hair growth effect became evident,"Mice (C57BL/6) [4]; 60 nM s.c. on Days 1, 5 and 9",~9 days
same,hair growth effect,"Mice (C57BL/6) [4]; 60 nM s.c. on Days 1, 5 and 9",delayed but detectable hair growth effect
same,plateau of hair growth score,"Mice (C57BL/6) [4]; 60 nM s.c. on Days 1, 5 and 9",about 1.3
same,hair growth effect,"Mice (C57BL/6) [4]; 60 nM s.c. on Days 1, 5 and 9, listed as equivalent non-mutated wild type sequence",delayed onset of hair growth stimulation
same,"Hair growth score, Mean","Mice (C57BL/6) [4]; Day 1, 60 nM s.c. on Days 1, 5 and 9",0
same,"Hair growth score, Mean","Mice (C57BL/6) [4]; Day 2, 60 nM s.c. on Days 1, 5 and 9",0
same,"Hair growth score, Mean","Mice (C57BL/6) [4]; Day 5, 60 nM s.c. on Days 1, 5 and 9",0.17
same,"Hair growth score, Mean","Mice (C57BL/6) [4]; Day 6, 60 nM s.c. on Days 1, 5 and 9",0.17
same,"Hair growth score, Mean","Mice (C57BL/6) [4]; Day 7, 60 nM s.c. on Days 1, 5 and 9",0.17
same,"Hair growth score, Mean","Mice (C57BL/6) [4]; Day 8, 60 nM s.c. on Days 1, 5 and 9",0.17
same,"Hair growth score, Mean","Mice (C57BL/6) [4]; Day 9, 60 nM s.c. on Days 1, 5 and 9",0.58
same,"Hair growth score, Mean","Mice (C57BL/6) [4]; Day 12, 60 nM s.c. on Days 1, 5 and 9",1.17
same,"Hair growth score, Mean","Mice (C57BL/6) [4]; Day 13, 60 nM s.c. on Days 1, 5 and 9",1.17
same,"Hair growth score, Mean","Mice (C57BL/6) [4]; Day 14, 60 nM s.c. on Days 1, 5 and 9",1.33
same,"Hair growth score, Mean","Mice (C57BL/6) [4]; Day 15, 60 nM s.c. on Days 1, 5 and 9",1.33
same,maximum effect relative to that observed with FOL-004,Mice (C57BL/6) [4]; hair growth score,less than 50%
"wildtype mouse osteopontin: wildtype mouse osteopontin protein, comparator in Example A",effect on hair growth,male wtC57BL/6N mice,no detectable effect on hair growth
